# Source: the METLIN SMRT retention time set (Domingo-Almenara et al. 2019)
# Assay: gradient 5% acetonitrile 3 min, to 50% in 2 min, to 85% in 15 min, held 3 min, 100 µL/min
# Conditions: column: Zorbax Extend-C18 2.1 x 50 mm; eluents: water / acetonitrile, 0.1% formic acid
# Procedure, shortened: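 Standards, all pure, were combined into mixtures of ~100 molecules and run at 100 μL/min on a Zorbax Extend-C18 column (2.1 × 50 mm, 1.8 μm) with water and acetonitrile, each containing 0.1% formic acid. A coupled quadrupole time-of-flight mass spectrometer operated in positive and negative ionization mode. Retention time values come from computationally picked adduct peaks, each inspected manually.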
row,Structure (SMILES),RP-LC retention time
1,COc1ccc(Nc2c(C(=O)N3CCCCC3C)cnc3nc(C)ccc23)cc1 (configuration not stated),639 s
2,COc1ccc(OC)c(NC(=O)N2CCN(c3cc(C)nc(N4CCCC4)n3)CC2)c1,676 s
3,Cc1cc(C(=O)N2CCC(Oc3nc4c(Cl)cccc4s3)CC2)no1,956 s
4,COc1ccc(CCNC(=O)C2CCCN(S(=O)(=O)c3ccc4c(ccn4C)c3)C2)cc1OC (configuration not stated),828 s
5,CCCC(=O)N1CCCC(c2nc(CNC(=O)C(C)C)cs2)C1 (configuration not stated),671 s
6,CCCSc1ncnc2[nH]ncc12,837 s
7,COc1ccc(S(=O)(=O)N2CCC3(CC2)c2nccn2CCN3C)cc1OC,610 s
8,O=S(=O)(c1cccc(C(F)(F)F)c1)N1CCN(c2cnn3cnnc3c2)CC1,668 s
9,O=S(=O)(c1cccnc1)N1CC(c2nc(CCOCC3CCOCC3)no2)C1,710 s
10,CCCNC(=O)C1CCCN(c2ccc(SCC(=O)Nc3c(C)cccc3Cl)nn2)C1 (configuration not stated),655 s
11,CN(Cc1cccn1C)C(=O)NC1CCCCC1,836 s
12,CCOc1ccc(NS(=O)(=O)c2ccc(-c3nnc(C4CCC4)o3)o2)cc1,922 s
13,CCc1nc2cc(N3CCC(C(=O)NCc4ccc(N(C)C)cc4)CC3)cnc2nc1CC,627 s
14,COc1ccc(C2(C(=O)N3CCN(S(=O)(=O)c4c(C)nn(C)c4C)CC3)CC2)cc1,754 s
15,O=C(O)c1cn(Cc2ccc(F)cc2)c(=O)c2ccccc12,806 s
16,Cc1noc(-c2ccc(OC3CN(S(=O)(=O)c4c(C)noc4C)C3)cc2)n1,943 s
17,O=C(O)CCC1CCN(S(=O)(=O)c2cccc(F)c2)CC1,765 s
18,COc1ccc(CC(=O)NC(C)C(=O)Nc2nc3ccccc3[nH]2)c(Cl)c1 (configuration not stated),676 s
19,Cc1cnn(CC(=O)N2CC(F)(F)C[C@H]2c2nc(C3CC3)no2)c1,703 s
20,Cc1noc(C)c1S(=O)(=O)N1CCOC(c2ccccc2)C1 (configuration not stated),882 s
21,CCCN1C(=O)CCc2cc(NS(=O)(=O)c3ccc(Cl)c(Cl)c3)ccc21,983 s
22,CC1CCN(C(=O)CCNc2c(-c3ccc(F)cc3)nc3cnccn23)CC1,794 s
23,O=C(c1cc(-c2ccccn2)n[nH]1)N1CCCC(C(=O)N2CCc3ccccc3C2)C1 (configuration not stated),688 s

row,Structure (SMILES),RP-LC retention time
1,O=C1NCCOCCCN(C(=O)Nc2ccccc2)[C@H]2CCC[C@@H]12,741 s
2,OC[C@@H]1CN(C2CCSCC2)C[C@H]1c1nc(-c2cccnc2)no1,555 s
3,CCCNC(=O)C1CCCN(c2ccc(SCC(=O)Nc3cccc(SC)c3)nn2)C1 (configuration not stated),693 s
4,Cc1nc2c(NC(=O)c3ccc(Cl)cc3)cccn2n1,835 s
5,O=C(c1ccc(F)c(F)c1)N1CCN(CCn2cccn2)CC1,543 s
6,O=C(CNS(=O)(=O)c1ccc(F)cc1)N1CCCC1c1nc(-c2ccc(Cl)cc2)no1 (configuration not stated),990 s
7,Cc1noc2ncnc(N3CCCC(C(=O)N4CCC(Cc5ccccc5)CC4)C3)c12 (configuration not stated),986 s
8,O=C(CN1CCC(c2nc(-c3cccc(F)c3)no2)CC1)Nc1ccc2c(c1)OCO2,719 s
9,CCNC(=O)N1CCCC(c2cccc(C(=O)NCC3CCCCC3)c2)C1 (configuration not stated),891 s
10,Cc1ccc(C)c(N2CCN(C(=O)c3cn4c(n3)CCCC4)CC2)c1,689 s
11,Cc1nnc2cc(N3CCN(C(=O)Nc4ccccc4F)CC3)cnn12,542 s
12,CCS(=O)(=O)Nc1ccc(S(=O)(=O)Nc2nc(C)cc(C)n2)cc1,598 s
13,COc1ccc(-n2c(=O)c3sccc3n(Cc3nc(-c4ccccc4OC)no3)c2=O)cc1,856 s
14,COc1cccc(NC(=O)N2CCCC2c2nc(-c3ccccc3OC)no2)c1 (configuration not stated),843 s
15,CCCCCn1c(=O)c2ccccc2n(Cc2nc(-c3ccc(OC)cc3)no2)c1=O,1210 s
16,Cc1cc(OCC(=O)Nc2ccc(F)cc2)nc(N2CCN(c3ccccc3)CC2)n1,823 s
17,Cn1nc(-c2nnc(-c3ccccc3)o2)c2c1CCN(S(=O)(=O)c1cccc(Cl)c1)C2,990 s
18,CCS(=O)(=O)Nc1ccc(C2(C(=O)NCc3ccc(C)cc3)CCC2)cc1,863 s
19,Cc1ccc(-c2noc(CCn3nc(-c4ccc5c(c4)OCO5)ccc3=O)n2)cc1,968 s
20,COc1cccc(N2CCN(c3cc(SCC(=O)NCC4CCCO4)ncn3)CC2)c1 (configuration not stated),769 s
21,CCc1nc2cc(-c3noc(-c4ccc(Br)o4)n3)ccc2o1,1190 s
22,CCCCn1nc(-c2nc(-c3ccc(F)cc3)no2)ccc1=O,1100 s
23,Cn1nccc1C(=O)N1CCc2c(c(CO)nn2Cc2ccccc2)C1,630 s

row,Structure (SMILES),RP-LC retention time
1,Cc1ccc(C)c(NC(=O)Cn2c(N)nc(C)cc2=O)c1,596 s
2,CCOCCCNC(=O)N1CC(Oc2ccc(-c3nc(-c4ccccc4)no3)cc2)C1,985 s
3,O=C(Cc1ccc(F)cc1)NC(c1ccccc1)c1nnc(N2CCCC2)o1 (configuration not stated),780 s
4,COc1cc(CC(=O)N2CCc3cc(-c4cc(C)no4)ccc32)cc(OC)c1,951 s
5,COc1ccc(Br)c(C(=O)Nc2nnc(Cc3ccc(F)cc3)o2)c1,774 s
6,Cc1cccc(CN2CCN(CC(=O)N3CCN(Cc4ccccc4)CC3)C(=O)C2=O)c1,608 s
7,Cc1ccc(S(=O)(=O)N2CCC(CC(=O)NC(C)c3ccccc3)CC2)cc1 (configuration not stated),917 s
8,CN(Cc1ccccc1)C(=O)c1nnc(-c2ccc(S(=O)(=O)N3CCCCC3)cc2)o1,1040 s
9,COc1ccc(N2CCN(C(=O)CN3C(=O)c4ccccc4Sc4ncccc43)CC2)cc1,725 s
10,Cc1ccc(CNC(=O)CN2C(=O)CSc3cccn3-c3ccccc32)cc1,1110 s
11,Cc1nnsc1C(=O)N1CCC(CNC(=O)c2ccccc2C(F)(F)F)CC1,674 s
12,O=C(NCc1ccc(N2CCCCC2)cc1)c1ccc2ncnc(N3CCCC3)c2c1,561 s
13,Cc1ccc(Cl)cc1NC(=O)CSc1nc2ncccc2c(=O)n1CC1CCCO1 (configuration not stated),794 s
14,CC(=O)SCc1nc(SCC(=O)Nc2ccccc2C)n[nH]1,623 s
15,Cc1cccc(OCC(=O)N2CC(CN(C)C)C3(CCOCC3)C2)c1 (configuration not stated),598 s
16,Cc1c(CN2CCN(C(=O)[C@H](C)O)CC2)sc2c(N3CCOCC3)nc(-c3cnc(N)nc3)nc12,612 s
17,CCOC(=O)c1nc(Nc2cccc(C)c2C)c2ccccc2n1,826 s
18,CCCn1cc(CCNS(=O)(=O)c2cc(C)c(C)cc2C)c2cccnc21,978 s
19,CCCOc1nn(CCC)cc1C(=O)N1CCC(C(=O)OC)CC1,736 s
20,NS(=O)(=O)c1ccc(-n2nc(C(F)(F)F)cc2-c2ccc(Cl)cc2)cc1,959 s
21,COc1ccccc1N1CCN(c2cc(SCC(=O)NCC3CCCO3)ncn2)CC1 (configuration not stated),732 s
